Experiments:
Assay type in all cases: cell-based
Settings in all cases: hPBMC Cell; 24 hours
[1] = molecular target: T1, WEE1 (Homo sapiens, UniProt P30291+Q96SW2); assay: Western blot degradation of WEE1
T1 construct: expression of target proteins in cells; endogenous in cells
Protocol: (§1) Conventional Western blot assay was performed to evaluate the effects of the compounds of the present disclosure on the expression of target proteins in cells.
(§2) (1) Cell Seeding and Protein Harvesting: The selected cells were processed according to the cell seeding procedure and protein harvesting procedure in Table II-2.
(§3) (2) To the collected supernatant, 5×SDS sample loading buffer was added, followed by denaturation at 95 °C for 5 minutes. The denatured samples were then separated by SDS-PAGE electrophoresis on a polyacrylamide gel. Proteins were transferred to a nitrocellulose membrane (0.45 μm NC membrane), blocked with blocking buffer at room temperature for 1 hour, and subjected to antibody incubation and development procedures according to the antibody manufacturer's instructions (Cell Signaling Technology).
(§4) Half-Maximal Degradation Concentration value (the drug concentration required for degrading proteins by 50%, abbreviated as DC50) reads method: comparing the grayscale values of Western blot bands from drug-treated samples with those from blank DMSO-treated controls, and identifying the drug concentration range at which the grayscale value is half that of the DMSO-treated control bands.
(§5) DC50 values can be calculated using ImageJ software to measure grayscale values of Western blot bands from drug-treated samples. The concentration-response curve is fitted to estimate the drug concentration corresponding to half the grayscale value.
(§6) Target protein remaining (%) refers to the percentage of target protein remaining in cells after treatment with protein degrader compounds.
(§7) Calculation method for target protein remaining (%): Use ImageJ software to measure grayscale values of Western blot bands from drug (protein degrader)-treated samples. The grayscale value of drug-treated bands is divided by that of internal control protein bands, and the resulting quotient is normalized to obtain the relative percentage of remaining target protein after protein degrader treatment.
(§8) Target protein degradation rate (%)=1−target protein remaining (%).

[2] = molecular target: T2, IKZF1 (Homo sapiens, UniProt Q13422+Q96SW2); assay: Western blot degradation of IKZF1
T2 construct: expression of target proteins in cells; endogenous in cells
T2 sequence (Q13422 whole entry): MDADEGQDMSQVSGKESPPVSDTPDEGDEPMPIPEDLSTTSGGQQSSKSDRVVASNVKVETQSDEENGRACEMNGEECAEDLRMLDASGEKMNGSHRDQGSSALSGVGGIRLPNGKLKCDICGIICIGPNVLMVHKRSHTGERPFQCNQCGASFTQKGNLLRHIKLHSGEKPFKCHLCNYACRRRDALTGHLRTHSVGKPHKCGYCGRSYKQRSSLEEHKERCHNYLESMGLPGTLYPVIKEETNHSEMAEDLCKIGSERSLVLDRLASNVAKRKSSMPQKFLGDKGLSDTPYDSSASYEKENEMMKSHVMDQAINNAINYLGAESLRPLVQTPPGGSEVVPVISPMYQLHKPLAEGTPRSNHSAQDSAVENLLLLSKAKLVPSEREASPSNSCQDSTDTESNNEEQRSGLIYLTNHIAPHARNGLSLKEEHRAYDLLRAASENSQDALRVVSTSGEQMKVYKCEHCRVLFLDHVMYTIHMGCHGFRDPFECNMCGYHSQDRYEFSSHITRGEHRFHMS
T2 sequence (Q96SW2 whole entry): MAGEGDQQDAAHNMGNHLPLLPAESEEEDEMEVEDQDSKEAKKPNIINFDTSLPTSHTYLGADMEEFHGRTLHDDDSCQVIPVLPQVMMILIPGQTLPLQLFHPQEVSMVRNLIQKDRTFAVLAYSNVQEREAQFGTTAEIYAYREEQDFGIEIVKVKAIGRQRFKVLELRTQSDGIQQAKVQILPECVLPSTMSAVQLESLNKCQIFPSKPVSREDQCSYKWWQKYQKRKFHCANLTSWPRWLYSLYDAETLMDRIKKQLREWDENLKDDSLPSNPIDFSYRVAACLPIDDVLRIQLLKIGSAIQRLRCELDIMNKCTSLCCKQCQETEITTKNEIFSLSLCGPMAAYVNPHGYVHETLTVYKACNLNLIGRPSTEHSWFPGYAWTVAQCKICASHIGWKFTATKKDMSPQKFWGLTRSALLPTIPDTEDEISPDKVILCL
T2 sequence (Q16531 whole entry partner): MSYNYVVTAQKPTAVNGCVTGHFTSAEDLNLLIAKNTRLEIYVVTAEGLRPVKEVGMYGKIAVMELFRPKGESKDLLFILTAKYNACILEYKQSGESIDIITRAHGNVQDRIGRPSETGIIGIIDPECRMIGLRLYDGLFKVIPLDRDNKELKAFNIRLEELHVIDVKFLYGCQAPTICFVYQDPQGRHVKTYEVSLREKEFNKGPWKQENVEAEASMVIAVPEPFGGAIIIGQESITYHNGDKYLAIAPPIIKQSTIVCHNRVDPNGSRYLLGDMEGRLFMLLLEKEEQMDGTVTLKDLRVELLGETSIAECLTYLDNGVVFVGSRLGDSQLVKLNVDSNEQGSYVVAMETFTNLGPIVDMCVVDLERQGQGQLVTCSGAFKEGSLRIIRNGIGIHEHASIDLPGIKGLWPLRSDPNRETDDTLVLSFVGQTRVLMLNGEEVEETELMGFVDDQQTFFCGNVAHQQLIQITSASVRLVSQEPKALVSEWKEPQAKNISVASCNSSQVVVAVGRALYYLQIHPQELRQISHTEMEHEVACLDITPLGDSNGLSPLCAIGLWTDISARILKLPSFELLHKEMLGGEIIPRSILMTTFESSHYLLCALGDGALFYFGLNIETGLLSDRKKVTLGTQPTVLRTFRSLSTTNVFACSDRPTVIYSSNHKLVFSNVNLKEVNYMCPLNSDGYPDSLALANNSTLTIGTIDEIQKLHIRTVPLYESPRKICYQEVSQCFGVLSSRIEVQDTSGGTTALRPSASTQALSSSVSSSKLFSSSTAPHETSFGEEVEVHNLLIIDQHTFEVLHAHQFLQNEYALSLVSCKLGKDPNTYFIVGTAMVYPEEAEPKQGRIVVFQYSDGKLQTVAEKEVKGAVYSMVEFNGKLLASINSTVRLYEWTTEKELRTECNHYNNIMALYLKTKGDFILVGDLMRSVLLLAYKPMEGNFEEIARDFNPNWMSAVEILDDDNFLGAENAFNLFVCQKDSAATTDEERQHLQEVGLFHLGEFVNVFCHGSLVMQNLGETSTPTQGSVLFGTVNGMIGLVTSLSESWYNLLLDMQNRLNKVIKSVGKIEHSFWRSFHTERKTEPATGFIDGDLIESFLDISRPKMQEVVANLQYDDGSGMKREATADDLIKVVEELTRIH
Protocol: as §1, §2, §3, §4, §5, §6, §7, §8

[3] = molecular target: T3, IKZF2 (Homo sapiens, UniProt Q96SW2+Q9UKS7); assay: Western blot degradation of IKZF2
T3 construct: expression of target proteins in cells; endogenous in cells
T3 sequence (Q9UKS7 whole entry): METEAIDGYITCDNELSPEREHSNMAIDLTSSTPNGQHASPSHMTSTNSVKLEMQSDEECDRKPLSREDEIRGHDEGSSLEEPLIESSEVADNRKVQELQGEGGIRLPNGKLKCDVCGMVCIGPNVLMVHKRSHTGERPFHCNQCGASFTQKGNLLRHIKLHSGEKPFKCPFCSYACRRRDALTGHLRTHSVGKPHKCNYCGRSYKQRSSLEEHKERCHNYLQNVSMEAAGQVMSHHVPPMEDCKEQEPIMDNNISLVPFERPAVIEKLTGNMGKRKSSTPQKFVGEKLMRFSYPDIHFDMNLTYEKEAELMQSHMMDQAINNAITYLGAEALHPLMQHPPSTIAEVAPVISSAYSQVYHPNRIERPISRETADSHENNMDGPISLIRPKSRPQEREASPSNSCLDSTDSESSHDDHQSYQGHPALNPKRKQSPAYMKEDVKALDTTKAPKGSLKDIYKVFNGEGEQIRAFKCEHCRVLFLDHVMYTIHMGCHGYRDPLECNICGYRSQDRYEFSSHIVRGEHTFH
T3 sequence (Q96SW2 whole entry): as the sequence (Q96SW2 whole entry) above
T3 sequence (Q16531 whole entry partner): as the sequence (Q16531 whole entry partner) above
Protocol: as §1, §2, §3, §4, §5, §6, §7, §8

[4] = molecular target: T4, IKZF3 (Homo sapiens, UniProt Q96SW2+Q9UKT9); assay: Western blot degradation of IKZF3
T4 construct: expression of target proteins in cells; endogenous in cells
Protocol: as §1, §2, §3, §4, §5, §6, §7, §8

[5] = molecular target: T5, CK1α (Homo sapiens, UniProt P48729+Q96SW2); assay: Western blot degradation of CK1α
T5 construct: expression of target proteins in cells; endogenous in cells
T5 sequence (P48729 whole entry): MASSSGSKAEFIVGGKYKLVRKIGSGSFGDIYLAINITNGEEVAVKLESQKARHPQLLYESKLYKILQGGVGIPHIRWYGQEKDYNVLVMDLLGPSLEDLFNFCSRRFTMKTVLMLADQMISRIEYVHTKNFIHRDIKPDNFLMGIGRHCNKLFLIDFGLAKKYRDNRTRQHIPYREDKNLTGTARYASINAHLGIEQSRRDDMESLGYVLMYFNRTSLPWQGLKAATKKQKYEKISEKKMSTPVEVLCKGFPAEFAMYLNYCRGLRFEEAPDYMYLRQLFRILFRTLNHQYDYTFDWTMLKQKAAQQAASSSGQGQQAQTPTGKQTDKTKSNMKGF
T5 sequence (Q96SW2 whole entry): as the sequence (Q96SW2 whole entry) above
T5 sequence (Q16531 whole entry partner): as the sequence (Q16531 whole entry partner) above
Protocol: as §1, §2, §3, §4, §5, §6, §7, §8

[6] = molecular target: T6, GSPT1 (Homo sapiens, UniProt P15170+Q96SW2); assay: Western blot degradation of GSPT1
T6 construct: expression of target proteins in cells; endogenous in cells
T6 sequence (P15170 whole entry): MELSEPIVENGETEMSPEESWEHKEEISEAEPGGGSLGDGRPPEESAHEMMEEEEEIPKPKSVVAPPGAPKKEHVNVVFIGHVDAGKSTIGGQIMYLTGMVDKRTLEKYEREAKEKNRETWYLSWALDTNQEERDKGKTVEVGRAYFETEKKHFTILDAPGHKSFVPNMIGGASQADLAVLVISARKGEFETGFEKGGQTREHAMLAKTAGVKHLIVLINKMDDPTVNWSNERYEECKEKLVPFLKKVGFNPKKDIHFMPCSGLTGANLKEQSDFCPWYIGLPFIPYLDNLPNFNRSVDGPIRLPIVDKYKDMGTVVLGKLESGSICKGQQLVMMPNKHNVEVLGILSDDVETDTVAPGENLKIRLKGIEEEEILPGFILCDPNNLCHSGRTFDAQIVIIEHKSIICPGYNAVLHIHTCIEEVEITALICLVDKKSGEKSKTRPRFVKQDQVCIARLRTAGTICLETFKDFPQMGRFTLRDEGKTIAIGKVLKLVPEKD
T6 sequence (Q96SW2 whole entry): as the sequence (Q96SW2 whole entry) above
T6 sequence (Q16531 whole entry partner): as the sequence (Q16531 whole entry partner) above
Protocol: as §1, §2, §3, §4, §5, §6, §7, §8

T1 sequence (P30291 whole entry): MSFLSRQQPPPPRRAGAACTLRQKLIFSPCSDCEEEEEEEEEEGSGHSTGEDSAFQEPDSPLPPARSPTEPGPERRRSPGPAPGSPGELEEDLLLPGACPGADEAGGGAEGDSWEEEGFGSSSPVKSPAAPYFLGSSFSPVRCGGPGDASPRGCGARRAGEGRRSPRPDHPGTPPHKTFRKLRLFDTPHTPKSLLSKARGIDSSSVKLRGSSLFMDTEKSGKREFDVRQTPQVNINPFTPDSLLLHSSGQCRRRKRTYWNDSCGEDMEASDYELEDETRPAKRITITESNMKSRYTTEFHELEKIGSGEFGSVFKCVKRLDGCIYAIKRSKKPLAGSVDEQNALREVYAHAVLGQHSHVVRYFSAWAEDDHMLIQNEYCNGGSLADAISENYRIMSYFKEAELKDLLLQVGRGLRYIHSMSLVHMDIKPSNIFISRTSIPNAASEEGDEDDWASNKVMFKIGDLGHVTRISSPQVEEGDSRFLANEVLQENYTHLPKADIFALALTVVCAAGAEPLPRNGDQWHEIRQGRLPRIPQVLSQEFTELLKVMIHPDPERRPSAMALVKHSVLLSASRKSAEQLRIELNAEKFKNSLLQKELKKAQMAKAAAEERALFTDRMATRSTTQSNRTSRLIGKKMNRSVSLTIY
T1 sequence (Q96SW2 whole entry): as the sequence (Q96SW2 whole entry) above
T1 sequence (Q16531 whole entry partner): as the sequence (Q16531 whole entry partner) above

Degradation of substrate protein GSPT1 (substrate protein remaining %) [6] | Compound | Degradation of substrate protein WEE1 (substrate protein remaining %) [1] | Degradation of substrate protein IKZF1 (substrate protein remaining %) [2] | Degradation of substrate protein IKZF2 (substrate protein remaining %) [3] | Degradation of substrate protein IKZF3 (substrate protein remaining %) [4] | Degradation of substrate protein CK1α (substrate protein remaining %) [5]
A (0%≤substrate protein remaining %≤80%) | O=C1CCN(N2C(=O)c3ccc(CO)cc3C2=O)C(=O)N1 [GT-04536, 2-(2,4-dioxotetrahydropyrimidin-1(2H)-yl)-5-(hydroxymethyl)isoindoline-1,3-dione] | B (80%<substrate protein remaining %≤100%) | B (80%<substrate protein remaining %≤100%) | B (80%<substrate protein remaining %≤100%) | B (80%<substrate protein remaining %≤100%) | B (80%<substrate protein remaining %≤100%)
A (0%≤substrate protein remaining %≤80%) | O=C1CCN(N2Cc3cc(CO)ccc3C2=O)C(=O)N1 [GT-05567, 1-(5-(hydroxymethyl)-1-oxoisoindolin-2-yl)dihydropyrimidine-2,4(1H, 3H)-dione] | A (0%≤substrate protein remaining %≤80%) | A (0%≤substrate protein remaining %≤80%) | B (80%<substrate protein remaining %≤100%) | A (0%≤substrate protein remaining %≤80%) | A (0%≤substrate protein remaining %≤80%)
A (0%≤substrate protein remaining %≤80%) | O=C1CCN(N2C(=O)c3cccc(F)c3C2=O)C(=O)N1 [GT-05576, 2-(2,4-dioxotetrahydropyrimidin-1(2H)-yl)-4-fluoroisoindoline-1,3-dione] | A (0%≤substrate protein remaining %≤80%) | B (80%<substrate protein remaining %≤100%) | A (0%≤substrate protein remaining %≤80%) | A (0%≤substrate protein remaining %≤80%) | A (0%≤substrate protein remaining %≤80%)
A (0%≤substrate protein remaining %≤80%) | O=C1CCN(N2C(=O)c3ccc(N4CCC(N5CCNCC5)CC4)cc3C2=O)C(=O)N1 [GT-05594, 2-(2,4-dioxotetrahydropyrimidin-1(2H)-yl)-5-(4-(piperazin-1-yl)piperidin-1-yl)isoindoline-1,3-dione] | B (80%<substrate protein remaining %≤100%) | B (80%<substrate protein remaining %≤100%) | A (0%≤substrate protein remaining %≤80%) | B (80%<substrate protein remaining %≤100%) | B (80%<substrate protein remaining %≤100%)
A (0%≤substrate protein remaining %≤80%) | O=C1CCN(N2C(=O)c3ccc(Br)cc3C2=O)C(=O)N1 [GT-04511, 5-bromo-2-(2,4-dioxotetrahydropyrimidin-1(2H)-yl)isoindoline-1,3-dione] | B (80%<substrate protein remaining %≤100%) | B (80%<substrate protein remaining %≤100%) | B (80%<substrate protein remaining %≤100%) | B (80%<substrate protein remaining %≤100%) | B (80%<substrate protein remaining %≤100%)
A (0%≤substrate protein remaining %≤80%) | O=CC1CCN(c2ccc3c(c2)C(=O)N(N2CCC(=O)NC2=O)C3=O)CC1 [GT-05580, 1-(2-(2,4-dioxotetrahydropyrimidin-1(2H)-yl)-1,3-dioxoisoindolin-5-yl)piperidine-4-carbaldehyde] | A (0%≤substrate protein remaining %≤80%) | B (80%<substrate protein remaining %≤100%) | A (0%≤substrate protein remaining %≤80%) | A (0%≤substrate protein remaining %≤80%) | A (0%≤substrate protein remaining %≤80%)
A (0%≤substrate protein remaining %≤80%) | O=C1CCN(N2C(=O)c3ccc(N4CCC(N5CCNCC5)C(F)(F)C4)cc3C2=O)C(=O)N1 (stereo not drawn) [GT-04990, 5-(3,3-difluoro-4-(piperazin-1-yl)piperidin-1-yl)-2-(2,4-dioxotetrahydropyrimidin-1(2H)-yl)isoindoline-1,3-dione] | A (0%≤substrate protein remaining %≤80%) | B (80%<substrate protein remaining %≤100%) | B (80%<substrate protein remaining %≤100%) | B (80%<substrate protein remaining %≤100%) | B (80%<substrate protein remaining %≤100%)

Compound | Degradation of substrate protein GSPT1 (substrate protein remaining %) [6] | Degradation of substrate protein WEE1 (substrate protein remaining %) [1] | Degradation of substrate protein IKZF1 (substrate protein remaining %) [2] | Degradation of substrate protein IKZF2 (substrate protein remaining %) [3] | Degradation of substrate protein IKZF3 (substrate protein remaining %) [4] | Degradation of substrate protein CK1α (substrate protein remaining %) [5]
O=C1CCN(N2C(=O)c3ccc(CBr)cc3C2=O)C(=O)N1 [GT-06979, 5-(bromomethyl)-2-(2,4-dioxotetrahydropyrimidin-1(2H)-yl)isoindoline-1,3-dione] | B (80%<substrate protein remaining %≤100%) | A (0%≤substrate protein remaining %≤80%) | B (80%<substrate protein remaining %≤100%) | A (0%≤substrate protein remaining %≤80%) | B (80%<substrate protein remaining %≤100%) | B (80%<substrate protein remaining %≤100%)
O=CC1CCN(C2CCN(c3ccc4c(c3)C(=O)N(N3CCC(=O)NC3=O)C4=O)CC2)CC1 [GT-05595, 1′-(2-(2,4-dioxotetrahydropyrimidin-1(2H)-yl)-1,3-dioxoisoindolin-5-yl)-[1,4′-bipiperidine]-4-carbaldehyde] | B (80%<substrate protein remaining %≤100%) | B (80%<substrate protein remaining %≤100%) | B (80%<substrate protein remaining %≤100%) | A (0%≤substrate protein remaining %≤80%) | B (80%<substrate protein remaining %≤100%) | B (80%<substrate protein remaining %≤100%)
O=C1CCN(N2C(=O)c3ccc(N4C5CNCC4C5)cc3C2=O)C(=O)N1 [GT-05588, 5-(3,6-diazabicyclo[3.1.1]heptan-6-yl)-2-(2,4-dioxotetrahydropyrimidin-1(2H)-yl)isoindoline-1,3-dione] | B (80%<substrate protein remaining %≤100%) | B (80%<substrate protein remaining %≤100%) | B (80%<substrate protein remaining %≤100%) | B (80%<substrate protein remaining %≤100%) | A (0%≤substrate protein remaining %≤80%) | B (80%<substrate protein remaining %≤100%)
O=C1CCN(N2C(=O)c3ccc(N4CCNCC4)c(F)c3C2=O)C(=O)N1 [GT-05592, 2-(2,4-dioxotetrahydropyrimidin-1(2H)-yl)-4-fluoro-5-(piperazin-1-yl)isoindoline-1,3-dione] | B (80%<substrate protein remaining %≤100%) | B (80%<substrate protein remaining %≤100%) | B (80%<substrate protein remaining %≤100%) | B (80%<substrate protein remaining %≤100%) | A (0%≤substrate protein remaining %≤80%) | B (80%<substrate protein remaining %≤100%)

Source: US20260364184A1, “COMPOUND BASED ON OXOISOINDOLINYL-SUBSTITUTED TETRAHYDROPYRIMIDINE-DIONE AND USE THEREOF” (GLUETACS THERAPEUTICS (SHANGHAI) CO., LTD., priority 2023, published 2026)
